Results taken from patent US6602982B1, “Process for the preparation of regular glycopeptides” (Hokkaido Electric Power Company, Incorporated, priority 1998, dated 2003).

Protocol: Aqueous solutions of the polymer of Example 5 having various concentrations were prepared, and the freezing point thereof was measured. The freezing point depression was measured with a light microscope with a temperature controller. Firstly, in order to remove any error in the measurement of freezing point due to supercooling, the whole system was previously frozen at −20° C., and then was carefully returned to 0° C. with attention not to dissolve completely the ice nucleus. Then, the system is gradually cooled with observing growth of ice crystal. The freezing point was deemed to be a point at which the growth of ice crystal was stopped and the whole system was frozen.

Olymer of L-Alanine-(β-D-galactopyranosyl)-(1→3)-(2-acetamido-2-deoxy-1-α-D-galactopyranosyl)-L-threonine-L-alanine [Example 5]
growth of ice crystal (aqueous solution, gradual cooling while observing ice crystal growth): inhibited the growth of ice crystal | freezing point depression activity (aqueous solutions of various concentrations, compared with literature data for natural origin AFGP, FIG. 1): almost the same freezing point depression activity as that of the natural origin AFGP
